Data on two compounds can be found in patent publication US20080242635A1, “Method for Lengthening the Seasonal Mobility Period of Fish” (priority 2005, published 2008).

One test deals with fish. The test can be described thus: Lengthening the seasonal mobility period of fish by feed supplements. The test is classed as in vivo. The note with it: for Lengthening of the seasonal mobility period of fish (in words): feed supplement.
Another test concerns koi fish. The test can be described thus: Pond test: fish feed to lengthen the period of seasonal mobility of koi (Example 5). The format is in vivo. The note with it: relative index 1 to 5 (1 fully immobile, 5 fully mobile), 10 gram feed per day, additive per Table 1. The text has this:
Four ponds of 40 cubic meters each, all contained 50 koi fish with an approximate total body weight of 50 kg were used to show effectiveness of the fish feed according to the invention. One pond served as a control were the fish were fed with control feed, the fish in the other ponds received a feed according to the invention as prepared in examples 2 to 4 above. The experiment started when the temperature of the water was about 2 degrees Celsius.
The fish in control pond were fed with 10 gram Cyprico White 3 mm floater feed per day, whereas the fish in the other pond were fed with 10 gram of the feeds as described in Example 2, 3 and 4 Table 1).
This effect increased gradually every day until after 5 days the fish were fully mobile, whereas the temperature of the water was still between 2 and 3 degrees Celsius. Mobility of the fish was scored on a relative index of 1 to 5 wherein 1 is fully immobile and 5 is fully mobile Table 2). The water in the control pond was at exactly the same temperature as that of the other ponds, however the fish in the control pond were completely immobile. […] The fish were healthy and fully mobile whereas the control group was almost fully immobile.
Fish in ponds 1, 2 and 3 were fed with fish feed according to the invention, fish in pond 4 received control feed. Further details are described in the examples.

In the case of 1,3 and 1,6 beta glucans, the “Lengthening of the seasonal mobility period of fish (in words)” value in the test with fish is given as “very useful”. In the test with fish (in vivo), the “Daily intake, optimum of cost benefit” value is recorded as “around 60 ug/kglw/day”.

For the compound `O=C(O)Cc1c[nH]c2ccccc12` [free IAA, indole-3-acetic acid], the Mobility with koi fish (day 1, water 2 degrees Celsius) came out at 1; in the test with koi fish (day 2, water 2 degrees Celsius) it was 1; with koi fish (day 3, water 3 degrees Celsius) it was 1; with koi fish (day 4, water 3 degrees Celsius), 2; in the test with koi fish (day 5, water 3 degrees Celsius), 2; with koi fish (day 8, water 3 degrees Celsius), 3. Moreover, the Mobility is given as 2 in the test on koi fish (day 12, water 3 degrees Celsius); 2 in the test on koi fish (day 16, water 4 degrees Celsius); 3 in the test with koi fish (day 20, water 5 degrees Celsius); 4 with koi fish (day 24, water 5 degrees Celsius); 4 in the test with koi fish (day 28, water 6 degrees Celsius). In addition, the “Lengthening of the seasonal mobility period of fish (in words)” value in the test on fish is “Particularly good results”.
